Laboratory results: patent publication US11420968B2 (priority 2018, dated 2022)

What was measured:
[1] = molecular target: T1, Bcl-2 (Homo sapiens (Human), UniProt P10415); test: biochemical; details: Biochemical activity (IC50, nM) BCL-2
[2] = molecular target: T1, Bcl-2
[3] = tested on: RS4;11 cells
Experimental: Each compound was serially diluted with 1 μM as the maximum concentration. To test the apoptotic effect of the compounds, the cells were seeded at 50,000 in 180 μl per well in 96-well plates and treated with 10-point dilution series of each compound for 48 hours at 37° C. Cell viability was assessed after the treatment using CellTiter-GLO luminescent assay (Promega) according to the manufacturer's recommendations. Briefly, 30 μl of CellTiter-GLO reagent was added into 200 μl of cell culture. Mixture was agitated on an orbital shaker for 5 minutes to ensure cell lysis followed by 7 mins incubation at room temperature to allow development and stabilization of luminescent signals, which corresponded to quantity of ATP and thus the quantity of metabolically active cells. Luminescent signals were measured using PHERAstar FS reader (BMG). Mean IC50 values for cell viability were determined with GraphPad Prism software. […] The anti-proliferative IC50s of these compounds were similarly determined as a percentage of viable cells upon treatment compared to the untreated control using CellTiter-GLO luminescent assay.

Row | Structure (SMILES) | IC50 [1] [nM] | folds less potent than its analog in biochemical assay [2] [folds] | folds less potent than its analog in cellular assay [3] [folds]
1 | O=C(NS(=O)(=O)c1ccc(NCC2CCOCC2)c([N+](=O)[O-])c1)c1ccc(N2CCC3(CCC(N4CCC[C@H]4c4ccccc4C4CC4)CC3)C2)cc1Oc1cnc2[nH]ccc2c1 (stereo partly drawn) [Example F42, (S)-2-((1H-pyrrolo[2,3-b]pyridin-5-yl)oxy)-4-(8-(2-(2-cyclopropylphenyl)pyrrolidin-1-yl)-2-azaspiro[4.5]decan-2-yl)-N-((3-nitro-4-(((tetrahydro-2H-pyran-4-yl)methyl)amino)phenyl)sulfonyl)benzamide] | 44 | – | –
2 | O=C(NS(=O)(=O)c1ccc(NCC2CCOCC2)c([N+](=O)[O-])c1)c1ccc(N2CC3(CN(CC4CCCN4c4ccccc4C4CC4)C3)C2)cc1Oc1cnc2[nH]ccc2c1 (stereo not drawn) [Example F114, 2-((1H-pyrrolo[2,3-b]pyridin-5-yl)oxy)-4-(6-((1-(2-cyclopropylphenyl)pyrrolidin-2-yl)methyl)-2,6-diazaspiro[3.3]heptan-2-yl)-N-((3-nitro-4-(((tetrahydro-2H-pyran-4-yl)methyl)amino)phenyl)sulfonyl)benzamide] | – | 28 to 80 | 15 to 22
